± gives the expanded uncertainty stated by the source.
Assay: mn = molality of the nth substance listed, in mol/kg
Conditions: 101 kPa, Liquid

Cc1ccccc1 [toluene] + CC1=CC(=O)c2ccccc2C1=O
m2 = 0
Conditions	mass density [kg/m3]	viscosity [mPa·s]
303.15 K	857.5 ± 0.7	0.5253 ± 0.009
308.15 K	852.9 ± 0.8	0.4933 ± 0.0088
313.15 K	847.9 ± 0.8	0.4717 ± 0.0086
318.15 K	843.5 ± 0.8	0.4491 ± 0.0085
323.15 K	838.7 ± 0.8	0.4244 ± 0.0083
328.15 K	834 ± 0.9	0.4082 ± 0.0082
333.15 K	829.1 ± 0.9	0.3835 ± 0.008

Cc1ccccc1C [1,2-dimethylbenzene] + CC1=CC(=O)c2ccccc2C1=O
m2 = 0
Conditions	mass density [kg/m3]	viscosity [mPa·s]
303.15 K	872.1 ± 0.7	0.7404 ± 0.011
308.15 K	867.7 ± 0.8	0.69 ± 0.01
313.15 K	864 ± 0.8	0.6451 ± 0.0099
318.15 K	859.7 ± 0.8	0.6117 ± 0.0096
323.15 K	855.5 ± 0.8	0.5711 ± 0.0093
328.15 K	851.2 ± 0.8	0.5433 ± 0.0091
333.15 K	847.1 ± 0.9	0.5105 ± 0.0088

CC1=CC(=O)c2ccccc2C1=O [2-methyl-1,4-naphthalenedione] + Cc1cccc(C)c1
Conditions	mass density [kg/m3]	viscosity [mPa·s]
303.15 K, m1 = 0.0452	857.6 ± 0.7	0.5673 ± 0.0094
303.15 K, m1 = 0.0902	859.6 ± 0.7	0.5771 ± 0.0095
303.15 K, m1 = 0.1352	861.6 ± 0.8	0.5802 ± 0.0095
303.15 K, m1 = 0.1802	863.6 ± 0.8	0.5844 ± 0.0095
303.15 K, m1 = 0.2254	865.6 ± 0.8	0.5902 ± 0.0096
303.15 K, m1 = 0.272	867.7 ± 0.8	0.6031 ± 0.0097
308.15 K, m1 = 0.0452	853.1 ± 0.8	0.5351 ± 0.0091
308.15 K, m1 = 0.0902	855.1 ± 0.8	0.5422 ± 0.0092
308.15 K, m1 = 0.1352	857.1 ± 0.8	0.5467 ± 0.0092
308.15 K, m1 = 0.1802	859.1 ± 0.8	0.5523 ± 0.0093
308.15 K, m1 = 0.2254	861.1 ± 0.8	0.5566 ± 0.0093
308.15 K, m1 = 0.272	863.2 ± 0.8	0.5654 ± 0.0094
313.15 K, m1 = 0.0452	848.9 ± 0.8	0.5098 ± 0.0089
313.15 K, m1 = 0.0902	850.9 ± 0.8	0.5144 ± 0.009
313.15 K, m1 = 0.1352	852.9 ± 0.8	0.5188 ± 0.009
313.15 K, m1 = 0.1802	854.9 ± 0.8	0.5237 ± 0.009
313.15 K, m1 = 0.2254	856.9 ± 0.8	0.5284 ± 0.0091
313.15 K, m1 = 0.272	859 ± 0.8	0.5352 ± 0.0091
318.15 K, m1 = 0.0452	844.4 ± 0.8	0.4864 ± 0.0088
318.15 K, m1 = 0.0902	846.4 ± 0.8	0.4931 ± 0.0088
318.15 K, m1 = 0.1352	848.4 ± 0.8	0.4977 ± 0.0088
318.15 K, m1 = 0.1802	850.4 ± 0.8	0.5013 ± 0.0089
318.15 K, m1 = 0.2254	852.4 ± 0.8	0.505 ± 0.0089
318.15 K, m1 = 0.272	854.5 ± 0.8	0.5117 ± 0.0089
323.15 K, m1 = 0.0452	840.3 ± 0.8	0.4593 ± 0.0086
323.15 K, m1 = 0.0902	842.3 ± 0.8	0.4642 ± 0.0086
323.15 K, m1 = 0.1352	844.3 ± 0.8	0.4669 ± 0.0086
323.15 K, m1 = 0.1802	846.3 ± 0.8	0.4711 ± 0.0086
323.15 K, m1 = 0.2254	848.3 ± 0.8	0.4753 ± 0.0087
323.15 K, m1 = 0.272	850.4 ± 0.8	0.4817 ± 0.0087
328.15 K, m1 = 0.0452	835.7 ± 0.9	0.4381 ± 0.0084
328.15 K, m1 = 0.0902	837.7 ± 0.9	0.4432 ± 0.0084
328.15 K, m1 = 0.1352	839.7 ± 0.9	0.4456 ± 0.0085
328.15 K, m1 = 0.1802	841.7 ± 0.9	0.4497 ± 0.0085
328.15 K, m1 = 0.2254	843.7 ± 0.9	0.4539 ± 0.0085
328.15 K, m1 = 0.272	845.8 ± 0.9	0.463 ± 0.0086
333.15 K, m1 = 0.0452	831.6 ± 0.9	0.4148 ± 0.0082
333.15 K, m1 = 0.0902	833.6 ± 0.9	0.4198 ± 0.0083
333.15 K, m1 = 0.1352	835.6 ± 0.9	0.4242 ± 0.0083
333.15 K, m1 = 0.1802	837.6 ± 0.9	0.4269 ± 0.0083
333.15 K, m1 = 0.2254	839.6 ± 0.9	0.429 ± 0.0083
333.15 K, m1 = 0.272	841.7 ± 0.9	0.4342 ± 0.0084

— the NIST ThermoML archive (doi:10.1021/je7006549)
